# From US12428406B2 (PMV Pharmaceuticals, Inc., priority 2019, dated 2025)
# Biological target: T1, p53 Y220C (Homo sapiens, UniProt P04637, Y220C)
# T1 construct: The recombinant protein was a truncation mutant containing only amino acids 94-312 of p53; made in house; host or cells: E. coli
# Experiment: In vitro DNA binding activity assay (HTRF / TR-FRET): stabilization of p53 Y220C and increase of its DNA binding activity
# Type: biochemical
# Details: recombinant His-tagged p53 Y220C DNA binding domain (aa 94-312), biotin-labeled consensus DNA, incubated at 27° C. or 29° C. for 60 min
# Procedure, shortened: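 Compound effect on DNA binding of recombinant His-p53 Y220C (E. coli) to biotin-labeled consensus DNA, expressed as SC150, the concentration giving 50% increase versus untreated. Serial 3-fold DMSO dilutions of 4.5 mM stocks; room-temperature steps of 15 then 20 min.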
# T1 sequence (P04637 94-312, change not shown): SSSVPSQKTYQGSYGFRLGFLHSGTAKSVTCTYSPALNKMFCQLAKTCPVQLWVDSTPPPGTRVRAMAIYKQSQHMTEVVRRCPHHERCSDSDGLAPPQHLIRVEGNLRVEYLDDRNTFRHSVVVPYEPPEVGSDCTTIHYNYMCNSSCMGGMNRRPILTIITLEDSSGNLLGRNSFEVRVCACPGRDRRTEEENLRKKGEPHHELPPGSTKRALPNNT
row,Compound,SC150 (concentration of the compound required to increase the DNA binding activity by 50%)
1,"COc1cc(C#N)ccc1NCC#Cc1cc2c(NC3CCC(N4CC5(COC5)C4)CC3)cccc2n1CC(F)(F)F [Compound 250A, 3-methoxy-4-{[3-(4-{[(1S,4S)-4-{2-oxa-6-azaspiro[3.3]heptan-6-yl}cyclohexyl]amino}-1-(2,2,2-trifluoroethyl)-1H-indol-2-yl)prop-2-yn-1-yl]amino}benzonitrile]",+ (+ = 0 μM ≤ SC150 < 0.05 μM)
2,"COc1cc(C(=O)N2CC3(CCOCC3)C2)ccc1NCC#Cc1cc2c(N[C@@H]3CCN(C)C[C@@H]3F)cccc2n1CC(F)(F)F [Compound 907A, N-[(3S,4R)-3-fluoro-1-methylpiperidin-4-yl]-2-{3-[(2-methoxy-4-{7-oxa-2-azaspiro[3.5]nonane-2-carbonyl}phenyl)amino]prop-1-yn-1-yl}-1-(2,2,2-trifluoroethyl)-1H-indol-4-amine]",+ (+ = 0 μM ≤ SC150 < 0.05 μM)
3,"COc1cc(C(=O)O)ccc1NCC#Cc1cc2c(N[C@H]3CCN(C)C[C@H]3F)cccc2n1CC(F)(F)F (racemic) [Compound 779A, rac-4-{[3-(4-{[(3R,4S)-3-fluoro-1-methylpiperidin-4-yl]amino}-1-(2,2,2-trifluoroethyl)-1H-indol-2-yl)prop-2-yn-1-yl]amino}-3-methoxybenzoic acid]",+ (+ = 0 μM ≤ SC150 < 0.05 μM)
4,"COc1cc(S(=O)(=O)N(CCO)CCO)ccc1NCC#Cc1cc2c(NC3CCN(CC(C)O)CC3)cccc2n1CC(F)(F)F (stereo not shown) [Compound 595A, N,N-bis(2-hydroxyethyl)-4-{[3-(4-{[1-(2-hydroxypropyl)piperidin-4-yl]amino}-1-(2,2,2-trifluoroethyl)-1H-indol-2-yl)prop-2-yn-1-yl]amino}-3-methoxybenzene-1-sulfonamide]",+ (+ = 0 μM ≤ SC150 < 0.05 μM)
5,"CNC(=O)c1ccc(NCC#Cc2cc3c(NC4CCN(C[C@@H](O)COC)CC4)cccc3n2CC(F)(F)F)c(OC)c1 [Compound 647A, 4-({3-[4-({1-[(2R)-2-hydroxy-3-methoxypropyl]piperidin-4-yl}amino)-1-(2,2,2-trifluoroethyl)-1H-indol-2-yl]prop-2-yn-1-yl}amino)-3-methoxy-N-methylbenzamide]",+ (+ = 0 μM ≤ SC150 < 0.05 μM)
6,"N#CCOc1cc(S(N)(=O)=O)ccc1NCC#Cc1cc2c(N[C@H]3CC[C@@H](N4CC5(CCOCC5)C4)CC3)cccc2n1CC(F)(F)F [Compound 300A, 3-(cyanomethoxy)-4-{[3-(4-{[(1S,4S)-4-{7-oxa-2-azaspiro[3.5]nonan-2-yl}cyclo-hexyl]amino}-1-(2,2,2-trifluoroethyl)-1H-indol-2-yl)prop-2-yn-1-yl]amino}benzene-1-sulfonamide]",+ (+ = 0 μM ≤ SC150 < 0.05 μM)
7,"COc1cc(C(=O)NC2CCOCC2)ccc1NCC#Cc1cc2c(NC3CCN(C)CC3)cccc2n1CC(F)(F)F [Compound 500A, 3-methoxy-4-[(3-{4-[(1-methylpiperidin-4-yl)amino]-1-(2,2,2-trifluoroethyl)-1H-indol-2-yl}prop-2-yn-1-yl)amino]-N-(oxan-4-yl)benzamide]",+ (+ = 0 μM ≤ SC150 < 0.05 μM)
8,"COc1cc(C(=O)NC(CCO)CCO)ccc1NCC#Cc1cc2c(N[C@@H]3CCN(C)C[C@@H]3F)cccc2n1CC(F)(F)F [Compound 965A, N-(1,5-dihydroxypentan-3-yl)-4-{[3-(4-{[(3S,4R)-3-fluoro-1-methylpiperidin-4-yl]amino}-1-(2,2,2-trifluoroethyl)-1H-indol-2-yl)prop-2-yn-1-yl]amino}-3-methoxybenzamide]",+ (+ = 0 μM ≤ SC150 < 0.05 μM)
9,"CNC(=O)c1ccc(NCC#Cc2cc3c(N[C@H]4CC[C@H](N5CCC6(CCO6)CC5)CC4)cccc3n2CC(F)(F)F)c(OC)c1 [Compound 385A, 3-methoxy-N-methyl-4-{[3-(4-{[(1R,4R)-4-{1-oxa-7-azaspiro[3.5]nonan-7-yl}cyclohexyl]amino}-1-(2,2,2-trifluoroethyl)-1H-indol-2-yl)prop-2-yn-1-yl]amino}benzamide]",+ (+ = 0 μM ≤ SC150 < 0.05 μM)
10,"COc1cc(C(=O)O)ccc1NCC#Cc1cc2c(N[C@H]3CCN(CCO)C[C@H]3F)cccc2n1CC(F)(F)F [Compound 912A, 4-{[3-(4-{[(3R,4S)-3-fluoro-1-(2-hydroxyethyl)piperidin-4-yl]amino}-1-(2,2,2-trifluoroethyl)-1H-indol-2-yl)prop-2-yn-1-yl]amino}-3-methoxybenzoic acid]",+ (+ = 0 μM ≤ SC150 < 0.05 μM)
11,"CNC(=O)c1ccc(NCC#Cc2cc3c(N[C@H]4CC[C@H](N5CC6(CCC6)C5)CC4)cccc3n2CC(F)(F)F)c(OC)c1 [Compound 196A, 3-methoxy-N-methyl-4-{[3-(4-{[(1R,4R)-4-{2-azaspiro[3.3]heptan-2-yl}cyclohexyl]amino}-1-(2,2,2-trifluoroethyl)-1H-indol-2-yl)prop-2-yn-1-yl]amino}benzamide]",+ (+ = 0 μM ≤ SC150 < 0.05 μM)

# Second part, the compound after the results:
row,SC150 (concentration of the compound required to increase the DNA binding activity by 50%),Compound
1,+ (+ = 0 μM ≤ SC150 < 0.05 μM),"CCS(=O)(=O)c1ccc(NCC#Cc2cc3c(N[C@H]4CC[C@@H](N5CC6(CCOCC6)C5)CC4)cccc3n2CC(F)(F)F)c(OC)c1 [Compound 315A, 2-(3-{[4-(ethanesulfonyl)-2-methoxyphenyl]amino}prop-1-yn-1-yl)-N-[(1S,4S)-4-{7-oxa-2-azaspiro[3.5]nonan-2-yl}cyclohexyl]-1-(2,2,2-trifluoroethyl)-1H-indol-4-amine]"
2,+ (+ = 0 μM ≤ SC150 < 0.05 μM),"COCCCN1CCC(Nc2cccc3c2cc(C#CCNc2ccc(S(C)(=O)=O)cc2OC)n3CC(F)(F)F)CC1 [Compound 675A, 2-{3-[(4-methanesulfonyl-2-methoxyphenyl)amino]prop-1-yn-1-yl}-N-[1-(3-methoxypropyl)piperidin-4-yl]-1-(2,2,2-trifluoroethyl)-1H-indol-4-amine]"
3,+ (+ = 0 μM ≤ SC150 < 0.05 μM),"CC(C)C(=O)Oc1cc(S(C)(=O)=O)ccc1NCC#Cc1cc2c(N[C@H]3CC[C@H](N4CC5(COC5)C4)CC3)cccc2n1CC(F)(F)F [Compound 228A, 5-methanesulfonyl-2-{[3-(4-{[(1R,4R)-4-{2-oxa-6-azaspiro[3.3]heptan-6-yl}cyclohexyl]amino}-1-(2,2,2-trifluoroethyl)-1H-indol-2-yl)prop-2-yn-1-yl]amino}phenyl 2-methylpropanoate]"
4,+ (+ = 0 μM ≤ SC150 < 0.05 μM),CCN1CC[C@@H](Nc2cccc3c2cc(C#CCNc2ccc(S(C)(=O)=O)cc2OC)n3CC(F)(F)F)[C@@H](F)C1 [Compound 812A]
5,+ (+ = 0 μM ≤ SC150 < 0.05 μM),"CCN1CCC(Nc2cccc3c2cc(C#CCNc2ccc(C(=O)NC)cc2OC)n3CC(F)(F)F)CC1 [Compound 535A, 4-[(3-{4-[(1-ethylpiperidin-4-yl)amino]-1-(2,2,2-trifluoroethyl)-1H-indol-2-yl}prop-2-yn-1-yl)amino]-3-methoxy-N-methylbenzamide]"
6,+ (+ = 0 μM ≤ SC150 < 0.05 μM),"COc1cc(S(=O)(=O)NCC(O)CO)ccc1NCC#Cc1cc2c(NC3CCS(=O)(=O)CC3)cccc2n1CC(F)(F)F (stereo not shown) [Compound 1042A, N-(2,3-dihydroxypropyl)-4-[(3-{4-[(1,1-dioxo-1λ^6-thian-4-yl)amino]-1-(2,2,2-trifluoroethyl)-1 H-indol-2-yl}prop-2-yn-1-yl)amino]-3-methoxybenzene-1-sulfonamide]"
7,+ (+ = 0 μM ≤ SC150 < 0.05 μM),"COc1cc(S(C)(=O)=O)ccc1NCC#Cc1cc2c(N[C@H]3CCC[C@H](N)C3)cccc2n1CC(F)(F)F (relative stereo) [Compound 26A, rel-(1R,3R)-N^1-(2-{3-[(4-methanesulfonyl-2-methoxyphenyl)amino]prop-1-yn-1-yl}-1-(2,2,2-trifluoroethyl)-1H-indol-4-yl)cyclohexane-1,3-diamine]"
8,+ (+ = 0 μM ≤ SC150 < 0.05 μM),"COc1cc(S(C)(=O)=O)ccc1NCC#Cc1cc2c(N[C@H]3CC[C@H](N4CCC(S(C)(=O)=O)CC4)CC3)cccc2n1CC(F)(F)F [Compound 442A, 2-{3-[(4-methane-sulfonyl-2-methoxy-phenyl)amino]prop-1-yn-1-yl}-N-[(1R,4R)-4-(4-methanesulfonylpiperidin-1-yl)cyclohexyl]-1-(2,2,2-trifluoroethyl)-1H-indol-4-amine]"
9,+ (+ = 0 μM ≤ SC150 < 0.05 μM),"CCS(=O)(=O)c1ccc(NCC#Cc2cc3c(N[C@@H]4CCNC[C@@H]4F)cccc3n2CC(F)(F)F)c(OC)c1 [Compound 935A, 2-(3-{[4-(ethanesulfonyl)-2-methoxyphenyl]amino}prop-1-yn-1-yl)-N-[(3S,4R)-3-fluoropiperidin-4-yl]-1-(2,2,2-trifluoroethyl)-1H-indol-4-amine]"
10,+ (+ = 0 μM ≤ SC150 < 0.05 μM),CCC(=O)NS(=O)(=O)c1ccc(NCC#Cc2cc3c(N[C@H]4CC[C@@H](N(C)C)CC4)cccc3n2CC(F)(F)F)c(OC)c1 [Compound 86A]
11,+ (+ = 0 μM ≤ SC150 < 0.05 μM),"COc1cc(S(N)(=O)=O)ccc1NCC#Cc1cc2c(NC3CCC(=O)CC3)cccc2n1CC(F)(F)F [Compound 65A, 3-methoxy-4-[(3-{4-[(4-oxocyclohexyl)amino]-1-(2,2,2-trifluoroethyl)-1H-indol-2-yl}prop-2-yn-1-yl)amino]benzene-1-sulfonamide]"
